Patent publication US20230127345A1, “SELENOGALACTOSIDE COMPOUNDS FOR THE PREVENTION AND TREATMENT OF DISEASES ASSOCIATED WITH GALECTIN AND THE USE THEREOF” (GALECTIN SCIENCES, LLC, priority 2016, published 2023)

Legend:
[1] = tested on: MCF-7 cells; assay: Cell culture viability, MCF-7; assay type: cell-based; conditions: MCF-7, exposed over 3 days in standard growth media
Experimental: Procedure for MCF-7 Cells ([…]) was as follow:
1. MCF-7 cells were resuspended in culture media containing 4× Pen/Strep and 0.25% Fetal Bovine Serum (Gibco lot# 1202161). 2. 100 ul media was added with approximately 4,000-10,000 cells/well, passage # 5 up to 30) and cells were incubated for at least 24 hrs at 37° C. 3. Tested compound was diluted serially in assay media as above, usually at a range of 100 μg/ml to 20 ng/mL 4. […] serial diluted compound was added in duplicate to cells in assay plate. Final volume of each well was […], (containing 2× Pen/Strep, 0.25% FBS and compound as indicated 5. Cells were incubated 60-80 hours at 37° C. 6. […] of Promega Substrate [CellTiter 96 Aqueous One Solution] Reagent was added to each well. 7. Cells were incubated 37° C. for 4-8 hrs and read OD at 490 nm.
(§1) Cells were exposed to the G-625 over 3 days in standard growth media.

[2] = biological target: Galectin-9 and integrin aMB2 (Homo sapiens, UniProt O00182); assay: ELISA format with pairs of galectins and integrins; assay type: biochemical; conditions: FIG. 15
Galectin-9 and integrin aMB2, sequence (O00182 whole entry, species assumed): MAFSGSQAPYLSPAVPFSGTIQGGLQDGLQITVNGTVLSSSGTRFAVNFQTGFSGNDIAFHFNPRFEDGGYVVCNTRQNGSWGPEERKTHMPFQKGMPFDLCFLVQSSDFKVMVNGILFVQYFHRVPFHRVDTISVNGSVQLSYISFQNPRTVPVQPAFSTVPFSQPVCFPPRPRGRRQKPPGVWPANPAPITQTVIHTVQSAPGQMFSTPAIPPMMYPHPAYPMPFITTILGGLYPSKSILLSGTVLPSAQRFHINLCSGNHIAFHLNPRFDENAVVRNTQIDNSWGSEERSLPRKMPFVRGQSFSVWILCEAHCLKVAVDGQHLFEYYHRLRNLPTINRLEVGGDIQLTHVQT

[3] = biological target: T1, Galectin-3 (Homo sapiens, UniProt P17931); assay: ELISA of Galectin-3 binding inhibition (anti-Galectin-3 antibodies)
Description: (§2) Experiments have been performed to evaluate the physical interaction of galectin proteins with these various biological ligands mediating cellular functions.
Target sequence in this assay (P17931 whole entry): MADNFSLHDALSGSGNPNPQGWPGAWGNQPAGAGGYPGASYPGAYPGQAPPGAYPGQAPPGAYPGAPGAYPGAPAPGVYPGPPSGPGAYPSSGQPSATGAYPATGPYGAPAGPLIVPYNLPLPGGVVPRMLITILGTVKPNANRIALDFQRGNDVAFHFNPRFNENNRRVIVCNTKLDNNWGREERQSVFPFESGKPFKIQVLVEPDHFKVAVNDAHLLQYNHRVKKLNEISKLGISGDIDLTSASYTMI

[4] = tested on: MCP-1; assay: In-vitro inflammatory model, MCP-1 in endotoxin stressed THP-1 monocytes; assay type: cell-based; conditions: THP-1 stimulated with endotoxin for 5 days
Experimental: A model of macrophage polarization was set up, starting from THP-1 monocytes culture which is differentiated into inflammatory macrophages using PMA (Phorbol 12-myristate 13-acetate) for 2-4 days. Once differentiated (MO macrophages), the macrophages were induced with LPS or LPS and IFN-gamma for macrophage activation (M1) to inflammatory stage for 1-3 days. Array of cytokines and chemokines were analyzed to confirm the polarization of THP-1-derived macrophages to inflammatory stage. The impact of the anti-galectin 3 compounds on macrophage polarization was assessed first by monitoring cell viability using a colorimetric method (using a tetrazolium reagent) to determine the number of viable cells in proliferation or cytotoxicity assays (Promega, The CellTiter 96® AQueous One Solution Cell Proliferation Assay which contains a novel tetrazolium compound [3-(4,5-[…])-5-(3-carboxymethoxyphenyl)-2-(4-sulfophenyl)-2H-tetrazolium, inner salt; MTS] and an electron coupling reagent (phenazine ethosulfate; PES)) and inflammatory stage evaluated by a quantitatively measure of the chemokine Monocyte Chemoattractant Protein-1 (MCP-1/CCL2), a key protein that regulates migration and infiltration of monocytes/macrophages in cellular process of inflammation. Follow-up testing for the expression and secretion of other cytokines and chemokines were done for leading active compounds. […]

[5] = biological target: T1, Galectin-3; assay: Fluorescent polarization assay with fluorescent ligand; assay type: binding; conditions: for inhibition of Galectin-3 CRD specific fluorescent-ligand: Fluorescent polarization, inhibition curves
Target sequence in this assay (P17931 whole entry): as above

[6] = biological target: Galectin 1 and integrin aBV6 (Homo sapiens, UniProt P09382); assay: ELISA format with pairs of galectins and integrins; assay type: biochemical; conditions: FIG. 15
Galectin 1 and integrin aBV6, sequence (P09382 whole entry, species assumed): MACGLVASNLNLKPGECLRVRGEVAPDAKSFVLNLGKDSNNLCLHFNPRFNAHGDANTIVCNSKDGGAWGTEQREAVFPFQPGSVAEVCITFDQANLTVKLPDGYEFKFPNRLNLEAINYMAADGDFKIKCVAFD

[7] = biological target: Gal-3/integrins (αVβ3, αVβ6, αMβ2) (Homo sapiens, UniProt P17931); assay: gal-3/integrin interaction ELISA assay; assay type: biochemical; conditions: compared with TD-139 (G240); FIG. 10, 11A-11C
Gal-3/integrins (αVβ3, αVβ6, αMβ2), sequence (P17931 2-250 limits assumed): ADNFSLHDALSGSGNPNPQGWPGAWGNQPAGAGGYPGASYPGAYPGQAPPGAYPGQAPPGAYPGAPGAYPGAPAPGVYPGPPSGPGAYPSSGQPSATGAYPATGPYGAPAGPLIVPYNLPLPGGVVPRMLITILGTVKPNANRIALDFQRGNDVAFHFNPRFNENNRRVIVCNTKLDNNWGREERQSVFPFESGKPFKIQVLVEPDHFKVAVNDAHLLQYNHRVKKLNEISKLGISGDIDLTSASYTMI
Description: as §2

[8] = tested on: HTB-38 cells; assay: Cell culture viability, HTB-38; assay type: cell-based; conditions: HTB-38, exposed over 3 days in standard growth media
Experimental: Procedure for HTB-38 Cells ([…]) was as follow:
1. HTB-38 cells were resuspended in culture media containing 8 ng/ml h-IFN-gamma, 4× Pen/Strep and 10% Fetal Bovine Serum (Gibco lot# 1260930). 2. Cells were transferred at 100μl/well in assay plate (4,000-10,000 cells/well, passage# 4-30). 3. Tested compound was diluted serially in assay media as above, usually in range of 100 μg/ml to 20 ng/mL 4. 100 μl/well serial diluted compound was added in duplicate to cells. Final volume of each well was 200 μl, containing 4 ng/ml h-IFN-gamma, 2× Pen/Strep, 5. Cells were Incubate 60-90 hours at 37° C. 6. 20 μl of Promega Substrate [CellTiter 96 Aqueous One Solution] Reagent was added to each well. 7. Cells were incubated at 37° C. for 4-8 hrs and read OD at 490 nm.
as §1

[9] = tested on: Galectin-3; assay: Galectin-3 expression in TGFb1 stimulated LX-2 stellate cells, flow cytometry; assay type: cell-based; conditions: TGFb1, 5 days serum starved stimulated LX-2 cells
Description: TGFb1 stimulates hepatic stellate cells into the fibrogenesis pathway leading to secretion of collagen and other fibrosis biomarkers. […] While it is known that lactose has binding affinity to Gal-3, galactose lacks this affinity. […] The result confirmed this hypothesis.

[10] = biological target: gal-3 with Integrin (aMB2) (Homo sapiens, UniProt P17931); assay: gal-3/integrin interaction ELISA, Integrin (aMB2); assay type: biochemical; conditions: FIG. 11D and 11E
gal-3 with Integrin (aMB2), sequence (P17931 whole entry): as the sequence (P17931 whole entry) above

[11] = biological target: T1, Galectin-3; conditions: cited from earlier work
Target sequence in this assay (P17931 whole entry, species assumed): as the sequence (P17931 whole entry) above

[12] = pulmonary administration; cited from earlier work

For `OC[C@H]1O[C@@H]([Se][C@@H]2O[C@H](CO)[C@H](O)[C@H](n3cc(-c4cccc(F)c4)nn3)[C@H]2O)[C@H](O)[C@@H](n2cc(-c3cccc(F)c3)nn2)[C@H]1O` [G-625, beta-D-Galactopyranoside, 3-deoxy-3-(4-(3-fluorophenyl)-1H-1,2,3-triazol-1-yl)-beta-D-galactopyranosyl 3-deoxy-3-(4-(3-fluorophenyl)-1H-1,2,3-triazol-1-yl)-1-seleno-], the “cytotoxicity (cell culture viability)” value [1] was “no cytotoxicity”, the “inhibition of interaction between Galectin-9 and integrin aMB2” value [2] was “significantly inhibited” and the IC50 [3] was 14.4 nM. The “secretion of MCP-1” value [4] was “inhibitory effect on the inflammatory stage by reducing the secretion of MCP-1”, the IC50 [5] was 259 nM and the “inhibition of Galectin-3 CRD specific fluorescent-ligand” value [5] was “twice better inhibitor then G-240 (TD-139)”. For the same molecule, the “inhibition of interaction between Galectin 1 and integrin aBV6” value [6] was “significantly inhibited”, the “inhibition of Gal-3/integrins” value [7] was “more potent inhibitor of Gal-3/integrins than TD-139 (G240)” and the “cytotoxicity (cell culture viability)” value [8] was “no cytotoxicity”. For the same molecule, the galectin-3 expression [9] was “enhanced activity of G-625 versus G-240” and the galectin-3 expression ([9]; listed as G625) was “inhibition of galectin-3 expression”.

In the case of `OC[C@H]1O[C@@H]([Se]Cc2ccc(F)c(F)c2)[C@H](O)[C@@H](n2cc(-c3cccc(F)c3)nn2)[C@H]1O` [G-656], the “inhibition of the interaction of gal-3 with integrin” value [10] is reported as “significantly inhibit”.

In the case of `OCC1OC([Se][Se]C2OC(CO)C(O)C(n3cc(-c4cccc(F)c4)nn3)C2O)C(O)C(n2cc(-c3cccc(F)c3)nn2)C1O` (stereo not shown) [G-626], the IC50 [3] is reported as 1160 nM, the “secretion of MCP-1” value [4] is reported as “inhibitory effect on the inflammatory stage by reducing the secretion of MCP-1” and the IC50 [5] is reported as 5290 nM. For the same molecule, the “inhibition of Galectin-3 CRD specific fluorescent-ligand” value [5] was “showed an inhibitory activity”.

For `OC[C@H]1O[C@@H](O[C@H]2[C@H](O)[C@@H](O)C(O)O[C@@H]2CO)[C@H](O)[C@@H](O)[C@H]1O` (stereo partly shown) [Lactose, reference compound], the galectin-3 expression [9] was “would have effect (at relatively high concentrations)”.

With `O=C(C[Se][C@@H]1O[C@H](CO)[C@H](O)[C@H](n2cc(-c3cccc(F)c3)nn2)[C@H]1O)c1ccc(F)c(F)c1` [G-662] the “inhibition of the interaction of gal-3 with integrin” value [10] was “significantly inhibit” and the “inhibition of Galectin-3 CRD specific fluorescent-ligand” value [5] was “shown to inhibit the Gal-3 binding”.

In the case of `O=C[C@H](O)[C@@H](O)[C@@H](O)[C@H](O)CO` [Galactose, reference compound], the galectin-3 expression [9] is reported as “should not have any effect”.

For `OC[C@H]1O[C@@H](S[C@@H]2O[C@H](CO)[C@H](O)[C@H](n3cc(-c4cccc(F)c4)nn3)[C@H]2O)[C@H](O)[C@@H](n2cc(-c3cccc(F)c3)nn2)[C@H]1O` [TD-139, beta-D-Galactopyranoside, 3-deoxy-3-(4-(3-fluorophenyl)-1H-1,2,3-triazol-1-yl)-beta-D-galactopyranosyl 3-deoxy-3-(4-(3-fluorophenyl)-1H-1,2,3-triazol-1-yl)-1-thio-], the “binding to galectin 3” value [11] is listed as “reported to bind to galectin 3” and the “efficacy in mouse model of lung fibrosis” value [12] is listed as “effective”.
